We go through 69 compounds from patent US8865724B2, “Preparation of 2-methyl-4-amino-5(substituted-1H-1,2,3-triazolyl)methylpyrimidine derivatives and microbicidal activity thereof” (Central China Normal University, priority 2011, dated 2014).

Broadly, the melting point is the temperature of the solid-liquid transition. Take `Cc1ncc(Cn2nnc(COC(=O)c3ccc(Cl)cc3)c2I)c(N)n1` [Compound 91]: the melting point was 192 to 193 °C.
Then `Cc1ncc(Cn2nnc(COc3ccc([N+](=O)[O-])cc3Cl)c2I)c(N)n1` [Compound 30], with 223 to 225 °C; and `Cc1ncc(Cn2cc(CNC(=O)c3cccc([N+](=O)[O-])c3)nn2)c(N)n1` [Compound 53], with 188 to 189 °C.
The compound `Cc1ccc(OCC(=O)OCc2cn(Cc3cnc(C)nc3N)nn2)cc1` [Compound 57] came in with a melting point of 149 to 151 °C.
Compound `Cc1ncc(Cn2cc(CNC(=O)COc3cccc(C)c3C)nn2)c(N)n1` [Compound 77] displayed a melting point of 169 to 170 °C.
For `Cc1ncc(Cn2nnc(CNC(=O)c3ccc(F)cc3)c2I)c(N)n1` [Compound 104] the value was 217 to 219 °C; for `Cc1ncc(Cn2cc(COC(=O)COc3ccc(Cl)cc3C)nn2)c(N)n1` [Compound 59], 138 to 140 °C.
In turn, `Cc1ncc(Cn2nnc(COc3ccccc3[N+](=O)[O-])c2I)c(N)n1` [Compound 80] registered a melting point of 178 to 180 °C.
The compound `Cc1ncc(Cn2nnc(COC(=O)c3ccccc3Cl)c2I)c(N)n1` [Compound 89] had a melting point of 185 to 187 °C.
Compound `Cc1ncc(Cn2cc(COC(=O)COc3cccc(C)c3C)nn2)c(N)n1` [Compound 63] returned a melting point of 168 to 171 °C.
As for `Cc1ncc(Cn2cc(COC(=O)c3ccccc3Br)nn2)c(N)n1` [Compound 40], the melting point lay within 174 to 176 °C.
`Cc1ncc(Cn2cc(COC(=O)c3cccc([N+](=O)[O-])c3)nn2)c(N)n1` [Compound 41] displayed a melting point of 159 to 160 °C.
`Cc1ncc(Cn2cc(COc3ccc(Br)cc3)nn2)c(N)n1` [Compound 21] yielded a melting point of 167 to 168 °C.
As to `Cc1ncc(Cn2nnc(CNC(=O)c3ccccc3F)c2I)c(N)n1` [Compound 105], the melting point lay in the range of 204 to 206 °C.
For `Cc1ncc(Cn2cc(COC(=O)COc3ccc(Cl)cc3)nn2)c(N)n1` [Compound 56] the value was 152 to 153 °C; for `Cc1ncc(Cn2cc(CNC(=O)COc3ccc(Br)cc3)nn2)c(N)n1` [Compound 74], 105 to 106 °C; for `Cc1ncc(Cn2nnc(COC(=O)c3ccc(F)cc3)c2I)c(N)n1` [Compound 94], 207 to 209 °C.
`Cc1ncc(Cn2cc(COC(=O)COc3ccc([N+](=O)[O-])cc3)nn2)c(N)n1` [Compound 66]: the melting point fell in the range of 145 to 148 °C.
Regarding `Cc1ncc(Cn2cc(CNC(=O)c3ccc([N+](=O)[O-])cc3Cl)nn2)c(N)n1` [Compound 51], the melting point was more than 260 °C.
`Cc1ncc(Cn2cc(COc3ccc(C#N)cc3)nn2)c(N)n1` [Compound 22] showed a melting point of 185 to 186 °C.
For `Cc1ncc(Cn2cc(COc3ccccc3C)nn2)c(N)n1` [Compound 18], the melting point lay in the range of 153 to 154 °C.
For `Cc1ncc(Cn2nnc(COC(=O)c3ccccc3F)c2I)c(N)n1` [Compound 93] the value was 187 to 188 °C.
Compound `Cc1ncc(Cn2nnc(CNC(=O)c3cccc([N+](=O)[O-])c3)c2I)c(N)n1` [Compound 108] gave a melting point of 202 to 204 °C.
Then `COc1ccc(OCC(=O)NCc2cn(Cc3cnc(C)nc3N)nn2)cc1` [Compound 75], with 165 to 166 °C; and `Cc1ncc(Cn2cc(COC(=O)COc3ccc(Cl)c(C)c3)nn2)c(N)n1` [Compound 55], with 163 to 165 °C; and `Cc1ncc(Cn2nnc(COC(=O)c3ccc([N+](=O)[O-])cc3Cl)c2I)c(N)n1` [Compound 96], with 183 to 184 °C.
For `Cc1ncc(Cn2nnc(COC(=O)c3cccc([N+](=O)[O-])c3)c2I)c(N)n1` [Compound 97] the value was 201 to 202 °C.
Consider `Cc1ncc(Cn2nnc(CNC(=O)c3ccc([N+](=O)[O-])cc3Cl)c2I)c(N)n1` [Compound 107], for which the melting point is 183 to 184 °C.
For `Cc1cccc(OCc2cn(Cc3cnc(C)nc3N)nn2)c1` [Compound 19] the value was 58 to 59 °C; for `Cc1ncc(Cn2nnc(CNC(=O)c3ccccc3Cl)c2I)c(N)n1` [Compound 100], 186 to 188 °C.
For `Cc1ccc(OCC(=O)NCc2cn(Cc3cnc(C)nc3N)nn2)cc1` [Compound 70] the value was 117 to 119 °C; for `Cc1ncc(Cn2nnc(CNC(=O)c3ccccc3)c2I)c(N)n1` [Compound 102], 218 to 220 °C.
As for `Cc1ncc(Cn2nnc(COc3ccc(Cl)cc3Cl)c2I)c(N)n1` [Compound 83], the melting point was 176 to 177 °C.
As to `Cc1ncc(Cn2nnc(COc3ccccc3Br)c2I)c(N)n1` [Compound 85], the melting point fell in the range of 145 to 147 °C.
For `Cc1ncc(Cn2cc(CNC(=O)c3ccccc3Cl)nn2)c(N)n1` [Compound 49] the value was 217 to 218 °C.
`Cc1ccc(OCc2cn(Cc3cnc(C)nc3N)nn2)cc1` [Compound 17] showed a melting point of 157 to 158 °C.
Then `Cc1ncc(Cn2nnc(COC(=O)c3ccc([N+](=O)[O-])cc3)c2I)c(N)n1` [Compound 95], with 192 to 193 °C.
For `Cc1ncc(Cn2nnc(CNC(=O)c3cccc(Cl)c3)c2I)c(N)n1` [Compound 99], the melting point lay within 197 to 198 °C.
`Cc1ccc(C(=O)OCc2nnn(Cc3cnc(C)nc3N)c2I)cc1` [Compound 92]: the melting point is 200 to 201 °C.
`Cc1ncc(Cn2cc(CNC(=O)COc3ccc([N+](=O)[O-])cc3)nn2)c(N)n1` [Compound 73] returned a melting point of 143 to 144 °C.
Compound `Cc1ncc(Cn2cc(COc3ccc(F)cc3)nn2)c(N)n1` [Compound 20] had a melting point of 178 to 179 °C.
`Cc1ncc(Cn2cc(CNC(=O)COc3ccccc3)nn2)c(N)n1` [Compound 78] came in with a melting point of 168 to 169 °C.
For `Cc1ncc(Cn2cc(COC(=O)COc3ccccc3[N+](=O)[O-])nn2)c(N)n1` [Compound 65] the value was 158 to 160 °C.
As for `Cc1ncc(Cn2nnc(CNC(=O)c3ccc([N+](=O)[O-])cc3)c2I)c(N)n1` [Compound 101], the melting point lay within 223 to 224 °C.
`Cc1ncc(Cn2cc(COC(=O)COc3cc(Cl)c(Cl)c(Cl)c3)nn2)c(N)n1` [Compound 64] showed a melting point of 160 to 161 °C.
Consider `Cc1ncc(Cn2cc(COC(=O)COc3ccc([N+](=O)[O-])cc3Cl)nn2)c(N)n1` [Compound 67], for which the melting point lay within 145 to 148 °C.
Then `Cc1ncc(Cn2cc(CNC(=O)c3cccc(Cl)c3)nn2)c(N)n1` [Compound 50], with 213 to 214 °C; and `Cc1ncc(Cn2cc(COC(=O)COc3ccc(C(C)(C)C)cc3)nn2)c(N)n1` [Compound 61], with 107 to 110 °C; and `Cc1ncc(Cn2nnc(CNC(=O)c3ccccc3Br)c2I)c(N)n1` [Compound 109], with 200 to 202 °C.
Then `Cc1ccc(C(=O)NCc2nnn(Cc3cnc(C)nc3N)c2I)cc1` [Compound 106], with 180 to 182 °C; and `Cc1ncc(Cn2cc(COC(=O)COc3cccc(C(F)(F)F)c3)nn2)c(N)n1` [Compound 62], with 138 to 140 °C; and `Cc1ncc(Cn2cc(CNC(=O)c3ccccc3Br)nn2)c(N)n1` [Compound 52], with 233 to 234 °C.
For `Cc1ncc(Cn2nnc(CNC(=O)c3ccc(Cl)cc3)c2I)c(N)n1` [Compound 103] the value was 231 to 233 °C; for `CCOC(=O)c1ccc(OCc2nnn(Cc3cnc(C)nc3N)c2I)cc1` [Compound 87], 146 to 147 °C.
For the compound `COc1ccc(OCC(=O)OCc2cn(Cc3cnc(C)nc3N)nn2)cc1` [Compound 58], the melting point fell in the range of 128 to 129 °C.
For the compound `Cc1ncc(Cn2cc(COC(=O)COc3ccc(F)cc3Cl)nn2)c(N)n1` [Compound 60], the melting point was in the range of 144 to 146 °C.
The compound `Cc1ncc(Cn2cc(CNC(=O)c3ccccc3F)nn2)c(N)n1` [Compound 46] registered a melting point of 205 to 206 °C.
For `Cc1ncc(Cn2nnc(COc3cccc(C(F)(F)F)c3)c2I)c(N)n1` [Compound 81] the value was 146 to 148 °C; for `Cc1ncc(Cn2cc(CNC(=O)COc3ccc(F)cc3Cl)nn2)c(N)n1` [Compound 79], 125 to 126 °C.
For `Cc1ncc(Cn2cc(CNC(=O)c3ccc(F)cc3)nn2)c(N)n1` [Compound 44], the melting point is 211 to 212 °C.
In turn, `Cc1ncc(Cn2nnc(COC(=O)c3cccc(Cl)c3)c2I)c(N)n1` [Compound 90] showed a melting point of 185 to 187 °C.
In the case of `Cc1ncc(Cn2cc(CNC(=O)COc3ccc(Cl)cc3)nn2)c(N)n1` [Compound 71], the melting point was 124 to 125 °C.
As for `Cc1ncc(Cn2cc(CNC(=O)COc3ccc([N+](=O)[O-])cc3Cl)nn2)c(N)n1` [Compound 72], the melting point lay within 183 to 184 °C.
Then `Cc1ncc(Cn2cc(CNC(=O)c3ccc(Cl)cc3)nn2)c(N)n1` [Compound 48], with 165 to 167 °C; and `Cc1ccc(C(=O)NCc2cn(Cc3cnc(C)nc3N)nn2)cc1` [Compound 45], with 132 to 133 °C; and `Cc1ncc(Cn2nnc(COC(=O)c3ccccc3Br)c2I)c(N)n1` [Compound 98], with 200 to 202 °C.
`Cc1ncc(Cn2cc(CNC(=O)COc3ccccc3Cl)nn2)c(N)n1` [Compound 69] displayed a melting point of 201 to 202 °C.
`Cc1ncc(Cn2cc(CNC(=O)c3ccc([N+](=O)[O-])cc3)nn2)c(N)n1` [Compound 47] came in with a melting point of 239 to 240 °C.
For `Cc1ncc(Cn2cc(COC(=O)c3ccc([N+](=O)[O-])cc3Cl)nn2)c(N)n1` [Compound 42], the melting point lay within 129 to 130 °C.
